Assay results taken from patent US20240390451A1, “MODIFIED TRIPEPTIDES FOR USE IN THE TREATMENT OF A NON-ENVELOPED VIRUS INFECTION” (PHARMA HOLDINGS AS, priority 2021, published 2024).
Several values for one entry are separate records, joined by “and”; a condition that tells them apart may be missing. Equal entries are not always repeated. Where two headings read alike, the source gives them in different places.

How the values were obtained:
HeLaM cells [1] = settings: dilution at which cytotoxicity on HeLaM cells was observed, without virus, after filtration, 1% LTX-7 (w/v) in PBS or 0.25% SDS
Protocol: A parallel test where the same procedure was carried out in the absence of virus was included to determine any residual cytotoxic effect of LTX-7 on the assay cells.

[2] = test system: Rhinovirus (HRV-A60), Strain: 2268-CV37; experiment: Antiviral activity of LTX-7 against Rhinovirus: 1 hour incubation, filtration, TCID50 endpoint dilution on HeLaM cells; format: cell-based, Human Rhinovirus 60; settings: for % Reduction: as compared to the PBS control; for % Reduction / Log decrease / Rounded %: contact time 1 hour, 1% LTX-7 or 0.25% SDS; for TCID50/ml ± SEM: average virus titre recovered, contact time 1 hour at RT, 1% LTX-7 (w/v) in PBS or 0.25% SDS in PBS; for Log decrease: decrease in infectivity as compared to the PBS control; for Rounded %: rounded % reduction as compared to the PBS control
Protocol: The Rhinovirus used was from BEI Resources: Rhinovirus (HRV-A60), Strain: 2268-CV37 (BEI Resources Catalogue Number NR-51447).
To test whether LTX-7 has antiviral activity against Rhinovirus, 5×10^5 infectious units of Rhinovirus (40 μl) were incubated with four volumes of 1% LTX-7 (w/v) dissolved in PBS (160 μl) or a PBS (Phosphate-buffered saline) negative control. As a positive control, a buffer containing 0.25% SDS (Sodium dodecyl sulphate) in PBS was tested in parallel. Each sample and the PBS control were tested in triplicates.
(§1) After 1 hour at room temperature (RT), the incubation was stopped by adding an excess of cold assay media (5 ml), and the formulation was physically separated from the virus through a filter (Sartorius VivaSpin 6, 100,000 MWCO, PES (Sartorius, VS0642)) to reduce cytotoxicity on the assay cells. The assay media was DMEM (Gibco 61965-026) supplemented with 2% FBS (Gibco 10500-064), 20 mM Hepes (Gibco 15630-056) and 1× p/s (Gibco 15070063).
The starting solution for the serial dilution (i.e. the neat (or undiluted) solution or 10^0 solution) was obtained by re-suspending the virus that was separated via the filtration step in 1 ml of assay media. […] Appropriate controls were also performed.

HeLaM cells [3] = experiment: Parallel test without virus: residual cytotoxic effect of LTX-109 on the assay cells (Example 4); settings: dilution at which cytotoxicity on HeLaM cells was observed, after filtration and re-suspension, 1% LTX-109 or 2.5% glutaraldehyde in PBS
Protocol: A parallel test where the same procedure was carried out in the absence of virus was included to determine any residual cytotoxic effect of LTX-109 on the assay cells.

Rhinovirus 60, 2268-CV37 [4] = experiment: Antiviral activity of 3% LTX-109 against Rhinovirus: 1 hour incubation, dilution in media, TCID50 endpoint dilution on HeLa cells; format: cell-based, Human Rhinovirus 60; settings: for Log decrease: decrease in infectivity as compared to the PBS control; for Log decrease / Percentage: 1 hour; for Log decrease / Log / Percentage: 3% LTX-109 or 0.25% SDS; for Log: log of recovered virus titre after 1 hour incubation; for Percentage: reduction in infectivity as compared to the PBS control
Protocol: (§2) The Rhinovirus used was from BEI Resources: Rhinovirus 60, 2268-CV37 (Catalogue No. NR-51447).
(§3) To test whether 3% LTX-109 (w/v) has antiviral activity against Rhinovirus, 9×10^5 infectious units of Rhinovirus (40 μl) were incubated with four volumes of 3% LTX-109 dissolved in PBS (160 μl), alongside a PBS (Phosphate-buffered saline) control and a 0.25% SDS (Sodium dodecyl sulphate) positive control. The treatments were performed in triplicate.
After 1 hour, the incubation was stopped by adding 50 μl of mixture to 5 ml of media. The assay media was DMEM (Gibco 61965-026) supplemented with 2% FBS (Gibco 10500-064), 20 mM Hepes (Gibco 15630-056) and 1× p/s (Gibco 15070063).
(§4) Appropriate controls were also performed.

HeLa cells [5] = settings: dilution at which cytotoxicity on HeLa cells was observed, without virus, after dilution, 3% LTX-109 (w/v) in PBS or 0.25% SDS
Protocol: A parallel test where the same procedure was carried out in the absence of virus was included to determine any residual cytotoxic effect of the formulation on the assay cells.

[6] = test system: Human Rhinovirus 14, strain 1059; experiment: Antiviral (virucidal) activity of 1% LTX-109 against Human Rhinovirus 14: 1 hour incubation, filtration, TCID50 on HeLaM cells; format: cell-based; settings: for TCID50/ml ± SEM: average virus titre recovered, contact time 1 hour at RT, 1% LTX-109 (triplicate) or 2.5% glutaraldehyde in PBS (single replicate); for Log decrease: decrease in infectivity as compared to the PBS control; for Log decrease / % Reduction: contact time 1 hour, 1% LTX-109 or 2.5% glutaraldehyde; for % Reduction: reduction in Rhinovirus 14 infectivity as compared to the PBS control
Protocol: The virus used was from ATCC: Human Rhinovirus 14, strain 1059 (ATCC VR-284, lot number 70049530).
To test whether 1% LTX-109 has virucidal activity against Human Rhinovirus 14, 4×10^7 infectious units of Human Rhinovirus 14 in 40 μl were incubated with four volumes (160 μl) of 1% LTX-109 or a PBS negative control. As a positive control, a buffer containing 2.5% glutaraldehyde in PBS was tested in parallel. Both LTX-109 and negative control were tested in triplicates. The positive control was tested in a single replicate.
as §1, with “PES)” for “PES (Sartorius, VS0642))”, “10566016)” for “61965-026)”, “10500064),” for “10500-064),”, “HEPES” for “Hepes”, “15630056)” for “15630-056)”, “PenStrep” for “p/s”
Concentrated virus was re-suspended in 1 ml of assay media and infectious virus was quantified through a serial dilution (10^−1 to 10^−8) on a monolayer of HeLaM cells plated the day before at 8,000 cells/100 μl/well. […] Specifically, on a 96 well plate, 225 μl of media were placed in each well of 4 columns (32 wells in total). In the 4 wells of the top row (row A), 25 μl of re-suspended virus was added and mixed. With a multichannel pipette, 25 μl of media was then taken from the 4 wells in row A to the next 4 wells in row B, and then from row B to row C, and so on until row H, creating a serial dilution (10^−1 to 10^−8). 200 μl from each well was then added to separate wells containing a monolayer of HeLa M cells. Appropriate controls were also performed.

Rhinovirus 60, 2268-CV37 [7] = experiment: Antiviral activity of 1% LTX-109 against Rhinovirus: 1 hour incubation, filtration, TCID50 endpoint dilution on HeLa cells; format: cell-based, Human Rhinovirus 60; settings: for TCID50/ml ± SEM: average virus titre recovered after 1 hour incubation, 1% LTX-109 (w/v) in PBS or 0.25% SDS, triplicate; for Log decrease: decrease in infectivity as compared to the PBS control; for Log decrease / Percentage: 1 hour; for Log decrease / Log / Percentage: 1% LTX-109 or 0.25% SDS; for Log: log of recovered virus titre after 1 hour incubation; for Percentage: reduction in infectivity as compared to the PBS control
Protocol: as §2
as §3, with “1%” for “3%”, “2.24×10^5” for “9×10^5”
After 1 hour, the incubation was stopped by adding an excess of media, and the liquid was filtered through a filter (Sartorius VivaSpin 6) to separate the virus in order to reduce cytotoxicity on the assay cells. The assay media was DMEM (Gibco 61965-026) supplemented with 2% FBS (Gibco 10500-064), 20 mM Hepes (Gibco 15630-056) and 1×p/s (Gibco 15070063).
as §4

HeLa cells [8] = settings: dilution at which cytotoxicity on HeLa cells was observed, without virus, after filtration, 1% LTX-109 (w/v) in PBS or 0.25% SDS
Protocol: Infectious virus was quantified through a serial dilution of the filtrate (a series of ten-fold dilutions) on monolayers of HeLa cells in microtitre plates (HeLa cells are human cells capable of displaying a cytopathic effect (CPE) upon viral infection). For each dilution of the virus in the dilution series, eight wells of the microtitre plate were tested (i.e. each dilution was applied to eight separate wells, each well containing a HeLa cell monolayer). Appropriate controls were also performed. […] The TCID50 (TCID50/ml) assay (Tissue Culture Infectious Dose 50 assay) is a type of endpoint dilution assay that is well known in the art and routinely used to quantitatively measure virus titres. TCID50/ml provides a measure of infectious units of virus/ml. “/ml” refers to /ml of the starting solution (i.e. neat/undiluted solution) mentioned above. A parallel test where the same procedure was carried out in the absence of virus was included to determine any residual cytotoxic effect of the formulation on the assay cells.

[9] = listed as POSITIVE CONTROL (SDS), sulphate

SMILES	% Reduction [2]	Log decrease [2]	Cytotoxicity (HeLaM cells [3])	Log decrease (Rhinovirus 60, 2268-CV37 [4])	Log (Rhinovirus 60, 2268-CV37 [4])	Percentage (Rhinovirus 60, 2268-CV37 [4])	Cytotoxicity (HeLa cells [5])	TCID50/ml ± SEM [6]	Log decrease [6]	% Reduction [6]	TCID50/ml ± SEM (Rhinovirus 60, 2268-CV37 [7])	Log decrease (Rhinovirus 60, 2268-CV37 [7])	Log (Rhinovirus 60, 2268-CV37 [7])	Percentage (Rhinovirus 60, 2268-CV37 [7])	Cytotoxicity (HeLa cells [8])	also measured
N=C(N)NCCCC(N)C(=O)NC(Cc1ccc(-c2ccc3ccccc3c2)cc1)C(=O)NC(CCCNC(=N)N)C(=O)NCCc1ccccc1 (stereo not drawn) [LTX-7, Arg-Phe(4-(2-Naphthyl))-Arg-NH—CH2—CH2-Ph]	95.791%	1.33 logs														Cytotoxicity (HeLaM cells [1]): observed (only) with the neat application and only cytotoxic before any serial dilutions are performed and Neat; TCID50/ml ± SEM [2]: 3.86E+03 TCID50/ml and 3.86E+03 ± 1.14E+03 TCID50/ml
CC(C)(C)c1cc(C(C)(C)C)c2[nH]c(C(C)(C)C)c(CC(NC(=O)C(N)CCCNC(=N)N)C(=O)NC(CCCNC(=N)N)C(=O)NCCc3ccccc3)c2c1 (stereo not drawn) [LTX-109]			10^−1	1.9 logs	2.3	98.87%	only cytotoxic before any serial dilutions are performed	1.80E+06 TCID50/ml	1.05 logs	91.2%	4.8E+03 TCID50/ml and 4.80E+03 ± 8.21E+02 TCID50/ml	1.9 logs	3.7	98.89%	only cytotoxic before any serial dilutions are performed	Cytotoxicity (HeLa cells [5]; listed as 3% LTX-109): Neat; Cytotoxicity (HeLa cells [5]; listed as 3% formulation): observed (only) with the neat application; TCID50/ml ± SEM ([6]; listed as 1% LTX-109): 1.80E+06 (±3.08 ± 05) TCID50/ml; % Reduction ([6]; listed as 1% LTX-109): 91.2% and 91.17%; Cytotoxicity (HeLa cells [8]; listed as 1% LTX-109): observed (only) with the neat application and Neat
O=CCCCC=O [Positive Control, glutaraldehyde, reference compound]			Neat					3.75E+01 TCID50/ml	5.74 logs	99.9998%						% Reduction ([6]; listed as 2.5% glutaraldehyde in PBS): ~99.9%
CCCCCCCCCCCCOS(=O)(=O)[O-].[Na+] [SDS, Sodium dodecyl sulphate, reference compound]	99.983%	3.67 logs		3.0 logs	1.2	99.91%	Neat				1.00E+02 TCID50/ml	3.6 logs	2.0	99.98%	Neat	Cytotoxicity (HeLaM cells [1]; [9]): Neat; Cytotoxicity (HeLaM cells [1]; sulphate): observed (only) with the neat application; TCID50/ml ± SEM (Rhinovirus 60, 2268-CV37 [4]; average virus titre recovered after 1 hour incubation, 3% LTX-109 (w/v) in PBS or 0.25% SDS, triplicate): 1.58E+01 TCID50/ml; TCID50/ml ± SEM [2, 9]: 1.58E+01 (SEM ND) TCID50/ml; TCID50/ml ± SEM ([2]; sulphate): 1.58E+01 TCID50/ml; Rounded % [2, 9]: 99.9%; Rounded % ([2]; sulphate): ~99.9%
